Data published in patent publication US20050095241A1, “Estrogen receptor modulators and uses thereof” (priority 2003, published 2005).

How the values were obtained:
Ishikawa cells = assay: Tamoxifen-mediated agonist signaling, reporter gene and cell growth assays, Ishikawa cells; format: cell-based; details: Ishikawa cells co-transfected with ERE reporter gene; two days
Excerpt: (§1) Interference with PELP1 function blocks tamoxifen-mediated agonist activity in endometrial cell lines. Disruption of PELP1 functions was examined to assess interference with tamoxifen-mediated agonist signaling using reporter gene assays and cell growth assays performed in an endometrial cell line (Ishikawa) and a breast cancer cell line (MCF-7). Cancer cells were co-transfected with ERE reporter gene along with either (a) PELP1 cDNA, (b) PELP1 H1 […]), (c) PELP1 mutant cDNA lacking the nuclear localization signal (PELP-NLS mutant), or (d) PELP1-specific siRNA. Cells were stimulated with estrogen for two days and reporter gene activity and cell number were measured.

ERE luciferase reporter = ERE luciferase reporter assay in MCF-7, Ishikawa, HeLa and SaoS2 cells; details: E2 10^−9M, 24 hours
ERα [1] = molecular target: T1, ERα (Homo sapiens, UniProt P03372); assay: E2-mediated transactivation with PELP1 mutant lacking C-terminal histone-binding region; details: FIG. 9
T1 sequence (P03372 1-595): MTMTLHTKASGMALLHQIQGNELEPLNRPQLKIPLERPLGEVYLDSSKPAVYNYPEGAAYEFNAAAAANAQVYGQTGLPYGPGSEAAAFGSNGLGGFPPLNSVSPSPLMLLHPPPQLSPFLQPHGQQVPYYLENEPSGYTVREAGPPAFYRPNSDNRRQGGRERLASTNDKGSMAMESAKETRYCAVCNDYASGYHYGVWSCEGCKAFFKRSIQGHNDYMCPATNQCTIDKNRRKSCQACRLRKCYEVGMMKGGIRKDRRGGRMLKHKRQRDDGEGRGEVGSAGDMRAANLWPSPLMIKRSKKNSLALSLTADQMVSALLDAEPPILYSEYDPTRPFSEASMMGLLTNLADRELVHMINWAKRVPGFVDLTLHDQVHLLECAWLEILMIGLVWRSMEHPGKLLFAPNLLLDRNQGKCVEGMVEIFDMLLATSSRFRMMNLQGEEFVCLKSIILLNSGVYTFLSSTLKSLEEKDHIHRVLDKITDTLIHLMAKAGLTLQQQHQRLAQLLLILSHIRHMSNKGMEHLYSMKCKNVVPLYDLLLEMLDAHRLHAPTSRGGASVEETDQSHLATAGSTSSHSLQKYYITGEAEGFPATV

ERE reporter gene = ERE reporter gene assay in Ishikawa cells with or without PELP1 H1 mutant; format: cell-based, human; details: Ishikawa cells transfected with ERE reporter gene, treated or not treated with estrogen; FIG. 1E
Excerpt: Ishikawa (human endometrial adenocarcinoma) cells were transfected with ERE reporter gene with or without the PELP1 H1 mutant. […]

ERα [2] = molecular target: T1, ERα; assay: 3XEREluc reporter assay with ERα specific ligand in Ishikawa cells; format: cell-based; details: PELP1-transfected Ishikawa cells treated with PPT; FIG. 7C
Procedure: (§2) PELP1 is widely expressed in endometrial cancer cells including the widely used endometrial cell lines (Ishikawa and RL 95-2). Control MCF-7 (ERα-positive) and MDA-MB-231 (ERβ-positive) breast cancer cells were also analyzed. (FIG. 7A). […] PELP1 modulation of the transactivation functions of both ER subtypes was performed using ERα or ERβ specific ligands. […] PELP1 also promotes ERβ transcriptional activity in Ishikawa cells when cotransfected with PELP1 (FIG. 7F). Further, endogenous PELP1 effectively interacts with ERβ in Ishikawa cells in a ligand-dependent manner (FIG. 7G).

ER = ER transactivation assay (ERE-luciferase) in ER-positive Ishikawa cells; format: cell-based; details: coexpression of PELP1, compared to 6 fold in vector-transfected cells, FIG. 7B
Procedure: as §2

MCF-7 cells = assay: Tamoxifen-mediated agonist signaling, reporter gene and cell growth assays, MCF-7 cells; format: cell-based; details: MCF-7 cells co-transfected with ERE reporter gene; two days
Excerpt: as §1

Compound	tamoxifen-mediated agonist activity (Ishikawa cells)	ERE luciferase reporter activity (ERE luciferase reporter; FIG. 2)	ERE luciferase reporter activity (ERE luciferase reporter; FIG. 2, listed as Histone H1 mutant)	ERα mediated transcription (ERα [1])	estrogen-mediated transcriptional activation (ERE reporter gene activity) (ERE reporter gene)	increase of 3XEREluc reporter activity (ERα [2])	increase of ERE-luciferase (luc) activity in ligand-stimulated cells (ER)	tamoxifen-mediated agonist activity (MCF-7 cells)
PELP1 H1 mutant: C-terminal deleted PELP1 mutant (aa 1-877), stop codon after amino acid 877, lacks Histone H1 binding domain; SEQ ID NO:14	disrupted tamoxifen-mediated agonist activity	effectively suppressed the estrogen mediated ER coactivation functions	substantially reduced the magnitude of the transcriptional activation by estrogen	blocks ERα mediated transcription	blocking of estrogen-mediated transcriptional activation	–	–	–
CCCc1c(-c2ccc(O)cc2)nn(-c2ccc(O)cc2)c1-c1ccc(O)cc1 [PPT]	–	–	–	–	–	9 times more than the vector-transfected control	–	–
wild-type PELP1: Proline, glutamic acid and leucine rich protein 1, full length, expressed from PELP1 cDNA; SEQ ID NO:1	augmented tamoxifen-mediated agonist activity	–	–	–	–	–	9 fold	not in MCF-7 cells
